Experimental data published in patent publication US20230203023A1, “SALT AND CRYSTAL FORMS OF GLP-1R AGONISTS AND USES THEREOF” (QILU REGOR THERAPEUTICS INC., priority 2020, published 2023).
Counter-ions that a name gives are not always drawn. Marks after values point to notes of the source that are not given here.

How the values were obtained:
Assay type in all cases: physicochemical
[1] = Kinetic solubility test in water and bio-relevant media (SGF, FaSSIF, FeSSIF); settings: for S: solubility: 37° C.; for Purity (%), area percentage of API: for reference only (suspensions); for FC: form change: residual solids by XRPD; for pH: supernatant
Procedure, shortened: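 Solids (~1 mg/mL loading as freeform) rolled at 25 rpm, 37° C in water, SGF (pH 1.8), FaSSIF (pH 6.5) or FeSSIF (pH 5.0). Sampled at 1, 4 and 24 h, centrifuged and filtered (0.45 μm PTFE). Supernatant concentration by HPLC, with pH measured; residual solids checked by XRPD.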

[2] = Solid stability evaluation (II/II), HPLC in triplicate
Experimental: The chemical stability of 1:1 Compound II Citrate Salt (Form A) and 1:1 Compound II Tris Salt (Form B) was further evaluated at solid state, samples were stored under the ambient condition or 40° C./75% RH for 1 day and 3 days, respectively.

[3] = Solution stability evaluation in SGF (pH 1.8) and pH 8.0 buffer at RT; settings: RT
Experimental: Weigh 100 mg of sodium chloride and 50 mg of Triton X-100 into a 50-mL volumetric flask. Add appropriate volume of purified water and sonicate until all solids are completely dissolved. Add about 68 μL of 12 M HCl and sufficient purified water closely to the target volume and adjust to pH 1.8. Dilute to volume with purified water, mix well and check the pH with a pH meter.
Add sufficient purified water closely to the target volume and adjust to pH 8.0. Dilute to volume with purified water, mix well and check the pH with a pH meter. […]
Solution stability was evaluated for 1:1 Compound II Citrate Salt (Form A) and 1:1 Compound II Tris Salt (Form B) in SGF (pH 1.8) and pH 8.0 buffer at RT. Clear solutions were prepared at two concentrations (0.01 mg/mL, 0.05 mg/mL) and then placed at RT for 6 hours, 1/5 days or 6 hours, 1/3/7 days. […] The HPLC purity and pH value were tested and the results were summarized from Table 7-3-1 to Table 7-3-4.

[4] = 6 hours, 0.01 mg/mL, pH 1.8 (SGF)
[5] = 6 hours, 0.01 mg/mL, pH 8.0 (50 mM phosphate)
[6] = 6 hours, 0.05 mg/mL, pH 1.8 (SGF)
[7] = 6 hours, 0.05 mg/mL, pH 8.0 (50 mM phosphate)
[8] = 1 day, 0.01 mg/mL, pH 1.8 (SGF)
[9] = 1 day, 0.01 mg/mL, pH 8.0 (50 mM phosphate)
[10] = 1 day, 0.05 mg/mL, pH 1.8 (SGF)
[11] = 1 day, 0.05 mg/mL, pH 8.0 (50 mM phosphate)
[12] = 3 days, 0.01 mg/mL, pH 1.8 (SGF)
[13] = 3 days, 0.01 mg/mL, pH 8.0 (50 mM phosphate)
[14] = 3 days, 0.05 mg/mL, pH 1.8 (SGF)
[15] = 3 days, 0.05 mg/mL, pH 8.0 (50 mM phosphate)
[16] = 7 days, 0.01 mg/mL, pH 1.8 (SGF)
[17] = 7 days, 0.01 mg/mL, pH 8.0 (50 mM phosphate)
[18] = 7 days, 0.05 mg/mL, pH 1.8 (SGF)
[19] = 7 days, 0.05 mg/mL, pH 8.0 (50 mM phosphate)
[20] = Initial, 0.01 mg/mL, pH 1.8 (SGF)
[21] = Initial, 0.01 mg/mL, pH 8.0 (50 mM phosphate)
[22] = Initial, 0.05 mg/mL, pH 1.8 (SGF)
[23] = Initial, 0.05 mg/mL, pH 8.0 (50 mM phosphate)

Compound: N#Cc1ccc(COc2cccc(C3=CCN(Cc4nc5ccc(C(=O)O)cc5n4C[C@@H]4CCO4)CC3)n2)c(F)c1 [Tris salt Form B, (S)-2-((6-((4-cyano-2-fluorobenzyl)oxy)-3′,6′-dihydro-[2,4′-bipyridin]-1′(2′H)-yl)methyl)-1-(oxetan-2-ylmethyl)-1H-benzo[d]imidazole-6-carboxylic acid]
- S: solubility ([1]; FaSSIF, 1 hour): 0.07 mg/mL
- Purity (%), area percentage of API ([1]; FaSSIF, 1 hour): 72.58%
- S: solubility ([1]; FaSSIF, 4 hours): 0.05 mg/mL
- Purity (%), area percentage of API ([1]; FaSSIF, 4 hours): 59.86%
- S: solubility ([1]; FaSSIF, 24 hours): 0.1 mg/mL
- Purity (%), area percentage of API ([1]; FaSSIF, 24 hours): 72.13%
- S: solubility ([1]; FeSSIF, 1 hour): 0.2 mg/mL
- Purity (%), area percentage of API ([1]; FeSSIF, 1 hour): 98.18%
- S: solubility ([1]; FeSSIF, 4 hours): 0.3 mg/mL
- Purity (%), area percentage of API ([1]; FeSSIF, 4 hours): 93.37%
- S: solubility ([1]; FeSSIF, 24 hours): 0.3 mg/mL
- Purity (%), area percentage of API ([1]; FeSSIF, 24 hours): 80.52%
- S: solubility ([1]; H2O, 1 hour): 0.4 mg/mL
- Purity (%), area percentage of API ([1]; H2O, 1 hour): 93.07%
- S: solubility ([1]; H2O, 4 hours): 0.9 mg/mL
- Purity (%), area percentage of API ([1]; H2O, 4 hours): 93.13%
- S: solubility ([1]; H2O, 24 hours): 0.6 mg/mL
- Purity (%), area percentage of API ([1]; H2O, 24 hours): 92.03%
- Solubility in H2O, comparison in words ([1]; H2O, compared with the other tested materials): better solubility
- S: solubility ([1]; SGF, 1 hour): 0.6 mg/mL
- Purity (%), area percentage of API ([1]; SGF, 1 hour): 93.44%
- S: solubility ([1]; SGF, 4 hours): 0.2 mg/mL
- Purity (%), area percentage of API ([1]; SGF, 4 hours): 84.69%
- S: solubility ([1]; SGF, 24 hours): 0.2 mg/mL
- Purity (%), area percentage of API ([1]; SGF, 24 hours): 82.04%
- FC: form change ([1]; FaSSIF, 4 hours): Yes
- FC: form change ([1]; FaSSIF, 24 hours): Yes
- FC: form change ([1]; FeSSIF, 1 hour): No
- FC: form change ([1]; FeSSIF, 4 hours): Yes
- FC: form change ([1]; FeSSIF, 24 hours): Yes
- FC: form change ([1]; H2O, 1 hour): No
- FC: form change ([1]; H2O, 4 hours): Yes
- FC: form change ([1]; H2O, 24 hours): Yes
- FC: form change ([1]; SGF, 1 hour): Yes
- FC: form change ([1]; SGF, 4 hours): Yes
- FC: form change ([1]; SGF, 24 hours): Yes
- pH ([1]; FaSSIF, 1 hour): 6.6
- pH ([1]; FaSSIF, 4 hours): 6.6
- pH ([1]; FaSSIF, 24 hours): 6.5
- pH ([1]; FeSSIF, 1 hour): 5.1
- pH ([1]; FeSSIF, 4 hours): 5.1
- pH ([1]; FeSSIF, 24 hours): 5.0
- pH ([1]; H2O, 1 hour): 7.6
- pH ([1]; H2O, 4 hours): 7.8
- pH ([1]; H2O, 24 hours): 7.9
- pH ([1]; SGF, 1 hour): 1.9
- pH ([1]; SGF, 4 hours): 2.0
- pH ([1]; SGF, 24 hours): 2.0
- Solubility in SGF, FaSSIF and FeSSIF compared with freeform ([1]; within 1 hour): higher than that of freeform
- Ave. Purity (area %) ([2]; 40° C./75% RH (open), 1 day): 94.5 area %
- Ave. Purity (area %) ([2]; 40° C./75% RH (open), 3 days): 94.8 area %
- Ave. Purity (area %) ([2]; Ambient condition (open), 1 day): 94.4 area %
- Ave. Purity (area %) ([2]; Ambient condition (open), 3 days): 94.2 area %
- Ave. Purity (area %) ([2]; Initial): 95.5 area %
- Purity (% area) [3, 4]: 94.92 % area
- Purity vs. Initial (%) [3, 4]: 99.7%
- pH [3, 4]: 1.8
- Purity (% area) [3, 5]: 98.97 % area
- Purity vs. Initial (%) [3, 5]: 99.9%
- pH [3, 5]: 8.0
- Purity (% area) [3, 6]: 97.53 % area
- Purity vs. Initial (%) [3, 6]: 99.3%
- pH [3, 6]: 1.8
- Purity (% area) [3, 7]: 99.28 % area
- Purity vs. Initial (%) [3, 7]: 100.0%
- pH [3, 7]: 8.0
- Purity (% area) [3, 8]: 94.11 % area
- Purity vs. Initial (%) [3, 8]: 98.8%
- pH [3, 8]: 1.8
- Purity (% area) [3, 9]: 98.38 % area
- Purity vs. Initial (%) [3, 9]: 99.3%
- pH [3, 9]: 8.0
- Purity (% area) [3, 10]: 96.40 % area
- Purity vs. Initial (%) [3, 10]: 98.1%
- pH [3, 10]: 1.8
- Purity (% area) [3, 11]: 98.86 % area
- Purity vs. Initial (%) [3, 11]: 99.6%
- pH [3, 11]: 8.0
- Purity (% area) [3, 12]: 91.81 % area
- Purity vs. Initial (%) [3, 12]: 96.4%
- pH [3, 12]: 1.8
- Purity (% area) [3, 13]: 98.26 % area
- Purity vs. Initial (%) [3, 13]: 99.2%
- pH [3, 13]: 8.0
- Purity (% area) [3, 14]: 93.38 % area
- Purity vs. Initial (%) [3, 14]: 95.0%
- pH [3, 14]: 1.8
- Purity (% area) [3, 15]: 98.98 % area
- Purity vs. Initial (%) [3, 15]: 99.7%
- pH [3, 15]: 8.0
- Purity (% area) [3, 16]: 87.14 % area
- Purity vs. Initial (%) [3, 16]: 91.5%
- pH [3, 16]: 1.8
- Purity (% area) [3, 17]: 97.31 % area
- Purity vs. Initial (%) [3, 17]: 98.3%
- pH [3, 17]: 8.0
- Purity (% area) [3, 18]: 87.15* % area
- Purity vs. Initial (%) [3, 18]: 88.7%
- pH [3, 18]: 1.8
- Purity (% area) [3, 19]: 98.75 % area
- Purity vs. Initial (%) [3, 19]: 99.5%
- pH [3, 19]: 8.0
- Purity (% area) [3, 20]: 95.25 % area
- pH [3, 20]: 1.8
- Purity (% area) [3, 21]: 99.04 % area
- pH [3, 21]: 8.0
- Purity (% area) [3, 22]: 98.26 % area
- pH [3, 22]: 1.8
- Purity (% area) [3, 23]: 99.27 % area
- pH [3, 23]: 8.0
